The target in this experiment is T1, CXCR3 (Homo sapiens, UniProt P49682).
T1 construct: host or cells: CHO-K1 (cAMP Hunter CHOK1 CXCR3 Gi cell line)
T1 sequence (P49682 1-368): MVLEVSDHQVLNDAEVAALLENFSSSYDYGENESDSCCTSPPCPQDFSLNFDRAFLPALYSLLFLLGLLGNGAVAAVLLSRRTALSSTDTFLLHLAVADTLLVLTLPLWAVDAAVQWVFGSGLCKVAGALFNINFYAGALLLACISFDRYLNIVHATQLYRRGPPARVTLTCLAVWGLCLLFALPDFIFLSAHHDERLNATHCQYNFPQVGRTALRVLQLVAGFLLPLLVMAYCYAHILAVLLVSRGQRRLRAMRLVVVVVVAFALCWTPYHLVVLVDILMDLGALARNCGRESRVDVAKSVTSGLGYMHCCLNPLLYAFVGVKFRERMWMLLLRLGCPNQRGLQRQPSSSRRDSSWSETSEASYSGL
The experiment in a line: CXCR3 cAMP agonist assay (cAMP Hunter CHOK1 CXCR3 Gi cell line, forskolin-stimulated, HitHunter cAMP detection). It is filed as cell-based. As to conditions: cAMP Hunter CHOK1 CXCR3 Gi cells, 20 μM forskolin, 30 minutes; read-out: Activity (CXCR3 cAMP agonist assay compound EC50). The gist of the method: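 Agonist activity was measured as suppression of forskolin (20 μM)-induced cAMP, read by luminescent enzyme-fragment complementation with a cAMP standard curve and CXCL11 defining full efficacy. Assay used 50,000 CXCR3 Gi CHOK1 cells/well in pH 7.4 HEPES-buffered HBSS with 0.1% BSA, compound 0-10 μM over 12 points, 30 min incubation.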

Bounds are passed on as bounds.

For `Cc1cc(NC(=O)[C@H](CCN)NC(=O)[C@@H]2Cc3ccccc3CN2C(=O)CCC(=O)N2CCC(F)(F)CC2)ccc1Cl` [Compound 12-4], the concentration giving a half-maximal response (EC50) is under 50 nM.
Take `COc1cc(C)c(C)cc1NC(=O)[C@H](CCN)NC(=O)[C@@H]1Cc2ccccc2CN1C(=O)CCC(=O)c1ccccc1` [Compound 2-79]: the half-maximal effective concentration (EC50) was under 50 nM.
For `Cc1ccc(NC(=O)[C@H](CCCCN)NC(=O)[C@@H]2Cc3ccccc3CN2C(=O)CCC(=O)c2ccccc2)cc1C(F)(F)F` [Compound 1-30], the EC50 was under 50 nM.
Under `Cc1cc(NC(=O)[C@H](CCCCN)NC(=O)[C@@H]2Cc3ccccc3CN2C(=O)CCC(=O)c2ccccc2)cnc1C` [Compound 1-34] stands under 50 nM; under `NCC[C@H](NC(=O)[C@@H]1Cc2ccccc2CN1C(=O)CCC(=O)c1ccccc1)C(=O)Nc1cc(Cl)ccc1Cl` [Compound 14-11], 50 to 250 nM.
Under `Cc1cc(NC(=O)[C@H](Cc2cnc(N)nc2)NC(=O)[C@@H]2Cc3ccccc3CN2C(=O)CCC(=O)c2ccccc2)ccc1Cl` [Compound 3-14] stands 250 to 500 nM; under `Cc1cc(NC(=O)[C@H](CCN2CCCCC2)NC(=O)[C@@H]2Cc3ccccc3CN2C(=O)CCC(=O)c2ccccc2)ccc1Cl` [Compound 3-9], under 50 nM; under `O=C(CCC(=O)N1Cc2ccccc2C[C@H]1C(=O)N[C@@H](CCN1CCCC(F)(F)C1)C(=O)Nc1ccc2c(c1)CCC2)c1ccccc1` [Compound 23-8], 250 to 500 nM.
Under `Cc1ccc(NC(=O)[C@H](CCCCN)NC(=O)[C@@H]2Cc3ccccc3CN2C(=O)CCC(=O)c2ccccc2)cc1Cl` [Compound 1-27] stands under 50 nM; under `CCN1CCN(C(=O)CCC(=O)N2Cc3ccccc3C[C@H]2C(=O)N[C@@H](CCN)C(=O)Nc2ccc(Cl)c(C)c2)C(C)(C)C1` [Compound 12-126], 50 to 250 nM.
Regarding `Cc1ccc(Cl)c(NC(=O)[C@H](CCN)NC(=O)[C@@H]2Cc3ccccc3CN2C(=O)CCC(=O)c2ccccc2)c1` [Compound 2-35], the EC50 was 50 to 250 nM.
Under `CC(=O)N1CCN(CC[C@H](NC(=O)[C@@H]2Cc3ccccc3CN2C(=O)CCC(=O)c2ccccc2)C(=O)Nc2ccc(Cl)c(C)c2)CC1` [Compound 19-1, (S)—N—((S)-4-(4-acetylpiperazin-1-yl)-1-((4-chloro-3-methylphenyl)amino)-1-oxobutan-2-yl)-2-(4-oxo-4-phenylbutanoyl)-1,2,3,4-tetrahydroisoquinoline-3-carboxamide] stands 250 to 500 nM.
Under `NCC[C@H](NC(=O)[C@@H]1Cc2ccccc2CN1C(=O)CCC(=O)c1ccccc1)C(=O)Nc1ccc2scnc2c1` [Compound 2-80] stands 250 to 500 nM; under `COc1nccc(C[C@H](NC(=O)[C@@H]2Cc3ccccc3CN2C(=O)CCC(=O)c2ccccc2)C(=O)Nc2ccc(Cl)c(C)c2)n1` [Compound 3-11], 250 to 500 nM.
Regarding `Cc1cc(NC(=O)[C@H](CCN2CCC(O)CC2)NC(=O)[C@@H]2Cc3ccccc3CN2C(=O)CCC(=O)c2ccccc2)ccc1Cl` [Compound 17-1, (S)—N—((S)-1-((4-chloro-3-methylphenyl)amino)-4-(4-hydroxypiperidin-1-yl)-1-oxobutan-2-yl)-2-(4-oxo-4-phenylbutanoyl)-1,2,3,4-tetrahydroisoquinoline-3-carboxamide], the 50% effective concentration (EC50) was under 50 nM.
Under `Cc1cc(NC(=O)[C@H](CCN)NC(=O)[C@@H]2Cc3ccccc3CN2C(=O)CCC(=O)N2CC3(CCCCC3)C2)ccc1Cl` [Compound 12-7] stands under 50 nM; under `CCc1c(NC(=O)[C@H](CCN)NC(=O)[C@@H]2Cc3ccccc3CN2C(=O)CCC(=O)c2ccccc2)ccc(Cl)c1Cl` [Compound 2-48], 50 to 250 nM; under `Cc1cc(NC(=O)[C@H](CCN)NC(=O)[C@@H]2Cc3ccccc3CN2C(=O)CCC(=O)N2CCCCC2)ccc1Cl` [Compound 10-1, (S)—N—((S)-4-amino-1-((4-chloro-3-methylphenyl)amino)-1-oxobutan-2-yl)-2-(4-oxo-4-(piperidin-1-yl)butanoyl)-1,2,3,4-tetrahydroisoquinoline-3-carboxamide], under 50 nM.
Under `Cc1cccc(NC(=O)[C@H](CCCCN)NC(=O)[C@@H]2Cc3ccccc3CN2C(=O)CCC(=O)c2ccccc2)c1` [Compound 1-10] stands 50 to 250 nM; under `Cc1cc(NC(=O)[C@H](CCN)NC(=O)[C@@H]2Cc3ccccc3CN2C(=O)CCC(=O)N2CCC3(CCC3)C2)ccc1Cl` [Compound 12-94], under 50 nM.
As for `NCC[C@H](NC(=O)[C@@H]1Cc2ccccc2CN1C(=O)CCC(=O)N1CCC2CCCCC2C1)C(=O)Nc1ccc2c(c1)CCC2` (stereo partly shown) [Compound 10-5], the concentration for a half-maximal effect (EC50) is under 50 nM.
Under `Cc1cc(NC(=O)[C@H](CCN)NC(=O)[C@@H]2Cc3ccccc3CN2C(=O)CCC(=O)N2CCS(=O)(=O)CC2)ccc1Cl` [Compound 12-17] stands 50 to 250 nM; under `Cc1cccc(NC(=O)C2(NC(=O)[C@@H]3Cc4ccccc4CN3C(=O)CCC(=O)c3ccccc3)CCNCC2)c1Cl` [Compound 11-1, (S)—N-(4-((2-chloro-3-methylphenyl)carbamoyl)piperidin-4-yl)-2-(4-oxo-4-phenylbutanoyl)-1,2,3,4-tetrahydroisoquinoline-3-carboxamide], over 500 nM.
On to `Cc1cc(NC(=O)[C@H](CCN)NC(=O)[C@@H]2Cc3ccccc3CN2C(=O)CCC(=O)N2CCN(c3ccccc3)CC2)ccc1Cl` [Compound 12-101], for which the concentration for a half-maximal effect (EC50) is over 500 nM.
In the case of `Cc1cc(NC(=O)[C@H](CCN)NC(=O)[C@@H]2Cc3ccccc3CN2C(=O)CCC(=O)N2CCCC23CCC3)ccc1Cl` [Compound 12-73], the EC50 is under 50 nM.
Under `NCC[C@H](NC(=O)[C@@H]1Cc2ccccc2CN1C(=O)CCC(=O)c1ccccc1)C(=O)Nc1ccc(C(F)(F)F)c(Cl)c1` [Compound 2-13] stands over 500 nM; under `Cc1cc(NC(=O)[C@H](CCN)NC(=O)[C@@H]2Cc3ccccc3CN2C(=O)CCC(=O)N2CCCC[C@H]2C)ccc1Cl` [Compound 12-25], under 50 nM.
Under `COc1cc(C(F)(F)F)c(C)cc1NC(=O)[C@H](CCN)NC(=O)[C@@H]1Cc2ccccc2CN1C(=O)CCC(=O)c1ccccc1` [Compound 2-76] stands 50 to 250 nM; under `Cc1cc(NC(=O)[C@H](CCN)NC(=O)[C@@H]2Cc3ccccc3CN2C(=O)CCC(=O)NCCC(F)(F)F)ccc1Cl` [Compound 12-90], 50 to 250 nM.
For the compound `Cc1ccc(C#N)cc1NC(=O)[C@H](CCN)NC(=O)[C@@H]1Cc2ccccc2CN1C(=O)CCC(=O)c1ccccc1` [Compound 14-20], the 50% effective concentration (EC50) is 250 to 500 nM.
Under `Cc1cc(NC(=O)[C@H](CCN)NC(=O)[C@@H]2Cc3ccccc3CN2C(=O)CCC(=O)N2C[C@@H](C)O[C@@H](C)C2)ccc1Cl` [Compound 12-1, (S)—N—((S)-4-amino-1-((4-chloro-3-methylphenyl)amino)-1-oxobutan-2-yl)-2-(4-((2R,6S)-2,6-dimethylmorpholino)-4-oxobutanoyl)-1,2,3,4-tetrahydroisoquinoline-3-carboxamide] stands 50 to 250 nM.
In the case of `Cc1cc(NC(=O)[C@H](CCN)NC(=O)[C@@H]2Cc3ccccc3CN2C(=O)CCC(=O)N2CCC(C)(C)CC2)ccc1Cl` [Compound 12-28], the concentration giving a half-maximal response (EC50) was under 50 nM.
Under `Cc1ccc(NC(=O)[C@H](CCCCN)NC(=O)[C@@H]2Cc3ccccc3CN2C(=O)CCC(=O)c2ccccc2)cc1C` [Compound 1-29] stands under 50 nM; under `NCC[C@H](NC(=O)[C@@H]1Cc2ccccc2CN1C(=O)CCC(=O)c1ccccc1)C(=O)Nc1cc2c(cc1F)CCC2` [Compound 2-78], under 50 nM.

The EC50 is the midpoint of the concentration-response curve.

The values are drawn from patent publication US11040954B1, “CXCR3 receptor agonists” (RECEPTOS LLC, priority 2016, dated 2021).
